Data as given in patent US20140308317A1, “Polymeric Compounds And Methods Of Making And Using The Same” (CELLCEUTIX CORPORATION, priority 2012, published 2014).
In brackets after ≈: the same amount, converted by molar mass. Read-outs that look alike come from different tables or passages of the source.

Columns and labels:
NIH/3T3 cells, CRL-1658 = assay: Cytotoxicity colorimetric (tetrazolium) assay; assay type: cell-based, mouse
Outline: (§1)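 HepG2 (MEM, 10% FBS) and NIH/3T3 (DMEM, 10% BCS) monolayers seeded at 2×10^4 cells/well 24 h before use, then exposed to compounds for one hour in serum-free medium. After return to serum-containing medium, viable cells read by tetrazolium bioreduction to formazan. EC50 in μg/mL from four-parameter logistic fit.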

[1] = test system: Staphylococcus aureus ATCC 27660; assay: Minimum Inhibitory Concentration (MIC), modified microbroth dilution; assay type: cell-based; conditions: S. aureus (27660), overnight incubation (18 hours)
[2] = test system: Pseudomonas aeruginosa ATCC 10145; assay: as above; assay type: cell-based; conditions: P. aeruginosa (10145), overnight incubation (18 hours)
E. Coli ATCC 25922 = assay: as above; assay type: cell-based; conditions: E. coli (25922), overnight incubation (18 hours)
HepG2, HB-8065 = assay: Cytotoxicity colorimetric (tetrazolium) assay; assay type: cell-based, human
Outline: as §1

[3] = test system: Enterococcus faecalis ATCC 29212; assay: Minimum Inhibitory Concentration (MIC), modified microbroth dilution; assay type: cell-based; conditions: E. faecalis (29212), overnight incubation (18 hours)
[4] = test system: Klebsiella pneumoniae ATCC 13883; assay: as above; assay type: cell-based; conditions: K. pneumoniae (13883), overnight incubation (18 hours)
[5] = Cytotoxicity colorimetric (tetrazolium) assay; assay type: cell-based, mouse; conditions: mouse, NIH/3T3 cells (CRL-1658), NIH/3T3 cells; one hour with compound in serum-free media
Outline: as §1

[6] = Cytotoxicity colorimetric (tetrazolium) assay; assay type: cell-based, human; conditions: human, HepG2 cells (HB-8065), HepG2 cells; one hour with compound in serum-free media
Outline: as §1

[7] = test system: S. enteritidis ATCC 13076; assay: Time-kill study; assay type: cell-based
Experimental: Time-kill studies of the compounds versus S. enteritidis ATCC 13076, E. coli ATCC25922, E. coli (lab strain) D31, and S. aureus ATCC27660 were determined in a standard protocol by measuring the time it takes to reduce the initial inoculums 3 log units. Three mL of cation-adjusted Mueller-Hinton medium was inoculated with 20 μL of frozen bacterial stock and incubated at 37° C. on a shaker platform (at 250 rpm) overnight. The suspension was diluted to approximately 5×10^5 cfu/mL and treated with 2×, 5×, 10×, and 20×MIC (MIC=1 μg/mL). The compound stock solutions were prepared at 10 mg/mL in DMSO. Time points were collected and viable bacteria were counted on MH Agar plates after an 18 hour incubation.
The time kill study was carried on Compound 200 against S. enteritidis ATCC 13076.

[8] = NIH/3T3 cells, one hour with compound in serum-free media
[9] = HepG2 cells, one hour with compound in serum-free media

Row | SMILES | MIC50 S. aureus [1] | MIC50 P. Aeruginosa [2] | MIC50 E. coli (E. Coli ATCC 25922) | MIC50 E. faecalis [3] | MIC50 K. Pnuemnoiae [4] | MIC50 ([1]; Staphylococcus aureus, ATCC27660, read-out: MIC50 S. aureus) | MIC50 ([2]; Pseudomonas aeruginosa, ATCC10145, read-out: MIC50 P. Aeruginosa) | MIC50 (E. Coli ATCC 25922; Escherichia coli, ATCC25922, read-out: MIC50 E. coli) | MIC50 ([3]; Enterococcus faecalis, ATCC29212, read-out: MIC50 E. faecalis) | MIC50 ([4]; Klebsiella pneumoniae, ATCC13883, read-out: MIC50 K. Pnuemnoiae) | EC50 NIH 3T3 (cytotoxicity) (NIH/3T3 cells, CRL-1658; [8]) | EC50 HepG2 (cytotoxicity) (HepG2, HB-8065; [9]) | EC50 at 1 h [5] | EC50 at 1 h [6] | EC50 NIH 3T3 (cytotoxicity) (NIH/3T3 cells, CRL-1658) | EC50 HepG2 (cytotoxicity) (HepG2, HB-8065) | time at which bacterial growth was reduced more than 3 log ([7]; 2×MIC) | time at which bacterial growth was reduced more than 3 log ([7]; 5×MIC) | time at which bacterial growth was reduced more than 3 log ([7]; 10×MIC)
1 | Cc1cc(-c2cc(OCCCN)cc(OCCCN)c2)cc(-c2cc(-c3cc(OCCCN)cc(OCCCN)c3)cc(C)c2F)c1F [Compound 149] | 0.78 µg/mL (≈ 1.18 µM) | 6.25 µg/mL (≈ 9.43 µM) | 3.13 µg/mL (≈ 4.72 µM) | 1.56 µg/mL (≈ 2.35 µM) | 3.13 µg/mL (≈ 4.72 µM) | – | – | – | – | – | 59.19 µg/mL (≈ 89.3 µM) | 98.5 µg/mL (≈ 149 µM) | – | – | – | – | – | – | –
2 | N=C(N)NCCc1cc(CCNC(=N)N)cc(-c2cc(F)cc(-c3cc(F)cc(-c4cc(CCNC(=N)N)cc(CCNC(=N)N)c4)c3)c2)c1 [Compound 151] | 0.78 µg/mL (≈ 1.14 µM) | 12.5 µg/mL (≈ 18.3 µM) | 1.56 µg/mL (≈ 2.28 µM) | 1.56 µg/mL (≈ 2.28 µM) | 3.13 µg/mL (≈ 4.58 µM) | – | – | – | – | – | 72.14 µg/mL (≈ 106 µM) | 254 µg/mL (≈ 372 µM) | – | – | – | – | – | – | –
3 | c1cc(CN2CCNCC2)cc(-c2ccc3sc4ccc(-c5cccc(CN6CCNCC6)c5)cc4c3c2)c1 [Compound 175] | 0.39 µg/mL (≈ 0.732 µM) | 25 µg/mL (≈ 46.9 µM) | 6.25 µg/mL (≈ 11.7 µM) | 12.5 µg/mL (≈ 23.5 µM) | 12.5 µg/mL (≈ 23.5 µM) | – | – | – | – | – | 19.9 µg/mL (≈ 37.4 µM) | 19.4 µg/mL (≈ 36.4 µM) | – | – | – | – | – | – | –
4 | NCCCOc1cc(OCCCN)cc(-c2ccc(F)c(-c3cc(-c4cc(OCCCN)cc(OCCCN)c4)ccc3F)c2)c1 [Compound 145] | 1.56 µg/mL (≈ 2.46 µM) | 12.5 µg/mL (≈ 19.7 µM) | 1.56 to 3.13 µg/mL | 0.78 to 1.56 µg/mL | 1.56 to 3.13 µg/mL | – | – | – | – | – | 146.3 µg/mL (≈ 230 µM) | 302 µg/mL (≈ 476 µM) | – | – | – | – | – | – | –
5 | NCCCOc1cc(OCCCN)cc(-c2ccc3c(c2)c2ccccc2n3CCCN)c1 [Compound 161] | 25 µg/mL (≈ 56 µM) | 50 µg/mL (≈ 112 µM) | >50 µg/mL | 3.13 µg/mL (≈ 7.01 µM) | >50 µg/mL | – | – | – | – | – | – | – | – | – | >1000 µg/mL | 790 µg/mL (≈ 1770 µM) | – | – | –

Second part, led by results:

Row | MIC50 S. aureus [1] | MIC50 P. Aeruginosa [2] | MIC50 E. coli (E. Coli ATCC 25922) | MIC50 E. faecalis [3] | MIC50 K. Pnuemnoiae [4] | MIC50 ([1]; Staphylococcus aureus, ATCC27660, read-out: MIC50 S. aureus) | MIC50 ([2]; Pseudomonas aeruginosa, ATCC10145, read-out: MIC50 P. Aeruginosa) | MIC50 (E. Coli ATCC 25922; Escherichia coli, ATCC25922, read-out: MIC50 E. coli) | MIC50 ([3]; Enterococcus faecalis, ATCC29212, read-out: MIC50 E. faecalis) | MIC50 ([4]; Klebsiella pneumoniae, ATCC13883, read-out: MIC50 K. Pnuemnoiae) | SMILES | EC50 NIH 3T3 (cytotoxicity) (NIH/3T3 cells, CRL-1658; [8]) | EC50 HepG2 (cytotoxicity) (HepG2, HB-8065; [9]) | EC50 at 1 h [5] | EC50 at 1 h [6] | EC50 NIH 3T3 (cytotoxicity) (NIH/3T3 cells, CRL-1658) | EC50 HepG2 (cytotoxicity) (HepG2, HB-8065) | time at which bacterial growth was reduced more than 3 log ([7]; 2×MIC) | time at which bacterial growth was reduced more than 3 log ([7]; 5×MIC) | time at which bacterial growth was reduced more than 3 log ([7]; 10×MIC)
6 | – | – | – | – | – | 0.098 µg/mL (≈ 0.15 µM) | 6.25 µg/mL (≈ 9.57 µM) | 3.13 µg/mL (≈ 4.79 µM) | 12.5 µg/mL (≈ 19.1 µM) | 12.5 µg/mL (≈ 19.1 µM) | NCCCOc1cc(OCCCN)cc(-c2ccc3c(c2)C(=O)c2cc(-c4cc(OCCCN)cc(OCCCN)c4)ccc2CC3)c1 [Compound 156] | 88.1 µg/mL (≈ 135 µM) | 143.7 µg/mL (≈ 220 µM) | 49.4 µg/mL (≈ 75.7 µM) | 74.2 µg/mL (≈ 114 µM) | – | – | – | – | –
7 | 0.39 µg/mL (≈ 0.622 µM) | 6.25 µg/mL (≈ 9.97 µM) | 1.56 µg/mL (≈ 2.49 µM) | 0.78 µg/mL (≈ 1.24 µM) | 1.56 µg/mL (≈ 2.49 µM) | – | – | – | – | – | Cc1cc(-c2cc(OCCCN)cc(OCCCN)c2)cc(-c2cc(C)cc(-c3cc(OCCCN)cc(OCCCN)c3)c2)c1 [Compound 147] | 50.94 µg/mL (≈ 81.3 µM) | 164 µg/mL (≈ 262 µM) | – | – | – | – | – | – | –
8 | 3.13 µg/mL (≈ 4.71 µM) | >50 µg/mL | >50 µg/mL | >50 µg/mL | >50 µg/mL | – | – | – | – | – | NCCNC(=O)c1cc(C(=O)NCCN)cc(-c2ccc3oc4ccc(-c5cc(C(=O)NCCN)cc(C(=O)NCCN)c5)cc4c3c2)c1 [Compound 168] | 32.4 µg/mL (≈ 48.7 µM) | 72.6 µg/mL (≈ 109 µM) | – | – | – | – | – | – | –
9 | 0.049 µg/mL (≈ 0.0779 µM) | 3.13 µg/mL (≈ 4.98 µM) | 0.78 µg/mL (≈ 1.24 µM) | 0.39 µg/mL (≈ 0.62 µM) | 1.56 µg/mL (≈ 2.48 µM) | – | – | – | – | – | NCCCOc1cc(OCCCN)cc(-c2ccc3sc4ccc(-c5cc(OCCCN)cc(OCCCN)c5)cc4c3c2)c1 [Compound 200] | 155 µg/mL (≈ 246 µM) | 126 µg/mL (≈ 200 µM) | – | – | – | – | 3.75 hour | 1.55 hour | 1.35 hour
